Source: ChEMBL document CHEMBL1201862, “PubChem BioAssay data set” (2004)
Active and inactive are the calls of the source.

Tests used:
[1] = molecular target: Sphingosine 1-phosphate receptor 2 (Homo sapiens, UniProt O95136); experiment: Dose Response Cell Based Assay for Agonists of the S1P2 Receptor of Purchased Analogues. [Related pubchem assays: 729, 843, 854, 736 ]; assay type: functional
Large T antigen = Large T antigen (Simian virus 40, UniProt P03070); assay type: functional, Betapolyomavirus macacae;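 further: Confirmatory-stage PubChem screen for compounds that inhibit SV40 T antigen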
NS3 = NS3 (Hepatitis C virus, UniProt A3EZJ3); experiment: PubChem AID 2173; design: species or system Hepacivirus hominis
Ion channel NompC = Ion channel NompC (Danio rerio, UniProt Q7T1G6); experiment: Fluorescence counterscreen assay for TRPML3 agonists: dose response cell-based high-throughput screening assay to identify agonists of the transient receptor potential channel N1 (TRPN1). [Related pubchem assays: 1526, 1424, 1448 ]; assay type: functional
Mucolipin-3 = molecular target: T1, Mucolipin-3 (Homo sapiens, UniProt Q8TDD5); experiment: Dose response cell-based high-throughput screening assay for agonists of the transient receptor potential channel ML3 (TRPML3). [Related pubchem assays: 1526, 1424, 1448 ]; assay type: functional
T1 sequence (Q8TDD5 whole entry): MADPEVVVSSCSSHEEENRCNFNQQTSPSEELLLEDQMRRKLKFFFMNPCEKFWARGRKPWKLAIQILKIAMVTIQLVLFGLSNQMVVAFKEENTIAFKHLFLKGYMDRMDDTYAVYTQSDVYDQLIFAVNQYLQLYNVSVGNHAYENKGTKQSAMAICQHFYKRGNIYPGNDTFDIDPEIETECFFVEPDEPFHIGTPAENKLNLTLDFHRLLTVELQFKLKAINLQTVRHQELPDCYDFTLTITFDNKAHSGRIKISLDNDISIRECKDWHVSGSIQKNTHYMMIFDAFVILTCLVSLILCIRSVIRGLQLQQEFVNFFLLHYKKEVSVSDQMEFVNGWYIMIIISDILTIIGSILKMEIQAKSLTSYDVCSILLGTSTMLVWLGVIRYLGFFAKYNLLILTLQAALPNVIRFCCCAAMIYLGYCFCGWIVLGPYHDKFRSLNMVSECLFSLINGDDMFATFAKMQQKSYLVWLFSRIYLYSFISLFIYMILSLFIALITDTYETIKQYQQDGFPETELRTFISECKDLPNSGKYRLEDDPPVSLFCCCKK

[2] = molecular target: Mothers against decapentaplegic homolog 3 (Homo sapiens, UniProt P84022); experiment: inhibitors of SMAD-driven TGF-beta signaling – dose response (AID 715); assay type: functional
Bcl-2-related protein A1 [3] = molecular target: T2, Bcl-2-related protein A1 (Mus musculus, UniProt Q07440); experiment: small-molecule antagonists of Bfl-1/BH3 interaction – biochemical, TR-FRET, mouse Bfl-1, confirmation (AID 621);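 further: TR-FRET binding of GST-Bfl-1 to FITC-labelled Bid peptide via terbium antibody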
T2 sequence (Q07440 whole entry): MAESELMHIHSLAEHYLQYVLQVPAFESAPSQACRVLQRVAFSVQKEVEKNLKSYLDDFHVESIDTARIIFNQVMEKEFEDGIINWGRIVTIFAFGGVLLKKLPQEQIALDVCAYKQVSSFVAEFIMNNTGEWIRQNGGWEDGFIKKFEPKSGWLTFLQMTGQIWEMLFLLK

Bcl-2-related protein A1 [4] = molecular target: T2, Bcl-2-related protein A1; experiment: Bfl-1 binding inhibitors, SAR follow-up, biochemical, fluorescence polarization (AID 1070)
[5] = molecular target: Glyceraldehyde-3-phosphate dehydrogenase (Homo sapiens, UniProt P04406)
Sequence of Glyceraldehyde-3-phosphate dehydrogenase (P04406 whole entry): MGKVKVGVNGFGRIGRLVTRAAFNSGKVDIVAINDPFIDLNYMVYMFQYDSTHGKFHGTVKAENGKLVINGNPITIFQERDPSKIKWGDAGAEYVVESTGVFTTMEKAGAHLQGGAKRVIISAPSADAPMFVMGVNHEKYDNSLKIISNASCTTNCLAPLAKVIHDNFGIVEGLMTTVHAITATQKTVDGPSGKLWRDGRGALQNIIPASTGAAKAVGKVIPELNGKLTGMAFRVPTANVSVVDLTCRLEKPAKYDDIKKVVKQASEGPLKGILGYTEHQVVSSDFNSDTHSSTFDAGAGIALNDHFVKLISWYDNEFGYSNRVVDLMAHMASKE

Sequence of Mothers against decapentaplegic homolog 3 (P84022 whole entry): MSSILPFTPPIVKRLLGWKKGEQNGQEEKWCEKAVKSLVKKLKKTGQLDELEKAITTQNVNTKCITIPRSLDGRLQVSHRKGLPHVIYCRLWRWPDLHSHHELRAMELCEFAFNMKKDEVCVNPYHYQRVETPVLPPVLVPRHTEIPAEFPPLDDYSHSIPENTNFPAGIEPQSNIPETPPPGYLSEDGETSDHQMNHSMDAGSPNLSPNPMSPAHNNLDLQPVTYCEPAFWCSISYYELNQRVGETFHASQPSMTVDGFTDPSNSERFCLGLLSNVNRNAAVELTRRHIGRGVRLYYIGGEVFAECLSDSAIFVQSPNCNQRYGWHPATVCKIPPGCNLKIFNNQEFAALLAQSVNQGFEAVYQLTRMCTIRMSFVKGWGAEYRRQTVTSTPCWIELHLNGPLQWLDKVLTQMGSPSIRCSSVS
Sequence of Large T antigen (P03070 whole entry): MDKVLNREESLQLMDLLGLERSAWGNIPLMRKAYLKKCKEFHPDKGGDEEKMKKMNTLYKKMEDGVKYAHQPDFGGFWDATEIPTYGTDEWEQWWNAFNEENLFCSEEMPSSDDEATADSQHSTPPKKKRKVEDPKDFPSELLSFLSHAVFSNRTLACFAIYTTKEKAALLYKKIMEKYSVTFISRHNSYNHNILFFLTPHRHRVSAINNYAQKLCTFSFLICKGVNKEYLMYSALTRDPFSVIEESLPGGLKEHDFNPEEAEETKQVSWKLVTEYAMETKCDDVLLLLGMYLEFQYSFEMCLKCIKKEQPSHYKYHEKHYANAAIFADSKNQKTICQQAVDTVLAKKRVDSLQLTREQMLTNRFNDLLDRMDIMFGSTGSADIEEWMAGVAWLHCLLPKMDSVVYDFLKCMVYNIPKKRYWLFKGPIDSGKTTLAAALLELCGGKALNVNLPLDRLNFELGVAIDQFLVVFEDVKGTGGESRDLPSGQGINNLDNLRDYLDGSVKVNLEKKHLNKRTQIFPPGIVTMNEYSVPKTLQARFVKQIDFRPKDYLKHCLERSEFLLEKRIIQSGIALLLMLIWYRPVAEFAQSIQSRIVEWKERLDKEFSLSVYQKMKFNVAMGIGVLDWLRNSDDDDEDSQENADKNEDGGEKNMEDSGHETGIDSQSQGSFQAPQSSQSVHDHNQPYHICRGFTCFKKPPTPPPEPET
Sequence of NS3 (A3EZJ3 whole entry): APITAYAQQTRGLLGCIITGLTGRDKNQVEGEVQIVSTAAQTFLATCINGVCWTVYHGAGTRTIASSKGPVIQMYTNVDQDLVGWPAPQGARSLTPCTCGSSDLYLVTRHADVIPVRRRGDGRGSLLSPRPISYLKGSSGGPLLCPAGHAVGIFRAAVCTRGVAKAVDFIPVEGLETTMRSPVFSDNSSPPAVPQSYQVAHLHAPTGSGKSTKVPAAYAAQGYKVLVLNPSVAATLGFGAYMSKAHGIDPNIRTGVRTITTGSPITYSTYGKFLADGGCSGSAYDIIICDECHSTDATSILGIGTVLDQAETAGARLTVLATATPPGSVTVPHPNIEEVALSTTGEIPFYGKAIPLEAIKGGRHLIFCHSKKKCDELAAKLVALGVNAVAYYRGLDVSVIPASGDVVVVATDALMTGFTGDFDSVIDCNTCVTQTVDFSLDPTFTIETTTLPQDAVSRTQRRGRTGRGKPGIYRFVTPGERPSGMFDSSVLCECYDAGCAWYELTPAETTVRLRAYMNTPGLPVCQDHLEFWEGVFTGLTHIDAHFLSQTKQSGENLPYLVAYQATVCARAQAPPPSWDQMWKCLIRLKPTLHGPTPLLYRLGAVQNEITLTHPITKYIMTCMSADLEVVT
Sequence of Ion channel NompC (Q7T1G6 whole entry): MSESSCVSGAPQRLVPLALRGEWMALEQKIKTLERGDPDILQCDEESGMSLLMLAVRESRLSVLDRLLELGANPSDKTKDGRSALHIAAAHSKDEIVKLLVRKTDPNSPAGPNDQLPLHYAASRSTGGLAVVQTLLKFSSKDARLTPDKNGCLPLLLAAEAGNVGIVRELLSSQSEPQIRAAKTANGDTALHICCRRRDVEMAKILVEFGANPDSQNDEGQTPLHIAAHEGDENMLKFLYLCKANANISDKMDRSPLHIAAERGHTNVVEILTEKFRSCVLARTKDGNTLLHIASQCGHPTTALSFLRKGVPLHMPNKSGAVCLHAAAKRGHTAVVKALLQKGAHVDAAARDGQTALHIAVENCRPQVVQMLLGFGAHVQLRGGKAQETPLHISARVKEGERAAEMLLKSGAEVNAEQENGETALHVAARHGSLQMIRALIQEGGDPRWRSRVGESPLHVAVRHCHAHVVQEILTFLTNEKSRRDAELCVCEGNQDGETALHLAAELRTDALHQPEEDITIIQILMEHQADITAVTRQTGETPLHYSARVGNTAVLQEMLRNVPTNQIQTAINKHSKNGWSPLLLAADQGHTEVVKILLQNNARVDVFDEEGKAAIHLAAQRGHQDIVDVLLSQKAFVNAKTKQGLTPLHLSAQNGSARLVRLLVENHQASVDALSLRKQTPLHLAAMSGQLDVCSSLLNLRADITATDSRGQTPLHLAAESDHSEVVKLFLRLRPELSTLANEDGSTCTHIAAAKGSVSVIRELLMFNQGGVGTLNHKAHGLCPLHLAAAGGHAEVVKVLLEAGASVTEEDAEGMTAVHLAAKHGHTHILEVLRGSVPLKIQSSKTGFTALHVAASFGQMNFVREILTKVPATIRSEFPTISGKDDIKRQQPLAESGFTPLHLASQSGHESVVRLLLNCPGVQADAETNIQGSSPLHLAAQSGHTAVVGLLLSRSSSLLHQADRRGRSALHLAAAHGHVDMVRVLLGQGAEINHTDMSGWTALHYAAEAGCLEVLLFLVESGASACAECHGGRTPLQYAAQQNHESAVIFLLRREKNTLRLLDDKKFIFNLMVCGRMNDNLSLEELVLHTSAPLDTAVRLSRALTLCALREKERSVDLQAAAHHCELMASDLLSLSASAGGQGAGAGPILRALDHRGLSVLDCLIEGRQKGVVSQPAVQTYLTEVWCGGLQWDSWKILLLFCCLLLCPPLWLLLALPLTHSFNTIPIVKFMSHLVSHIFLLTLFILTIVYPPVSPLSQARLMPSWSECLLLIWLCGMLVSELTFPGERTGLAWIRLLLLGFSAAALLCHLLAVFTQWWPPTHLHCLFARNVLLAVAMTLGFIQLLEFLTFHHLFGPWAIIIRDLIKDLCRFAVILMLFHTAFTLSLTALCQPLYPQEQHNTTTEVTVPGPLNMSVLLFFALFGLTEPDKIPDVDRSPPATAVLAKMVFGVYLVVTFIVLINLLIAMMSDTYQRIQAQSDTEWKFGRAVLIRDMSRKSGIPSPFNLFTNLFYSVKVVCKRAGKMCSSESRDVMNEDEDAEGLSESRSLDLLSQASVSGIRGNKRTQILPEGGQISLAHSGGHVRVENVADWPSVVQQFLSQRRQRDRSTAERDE
Sequence of Sphingosine 1-phosphate receptor 2 (O95136 whole entry): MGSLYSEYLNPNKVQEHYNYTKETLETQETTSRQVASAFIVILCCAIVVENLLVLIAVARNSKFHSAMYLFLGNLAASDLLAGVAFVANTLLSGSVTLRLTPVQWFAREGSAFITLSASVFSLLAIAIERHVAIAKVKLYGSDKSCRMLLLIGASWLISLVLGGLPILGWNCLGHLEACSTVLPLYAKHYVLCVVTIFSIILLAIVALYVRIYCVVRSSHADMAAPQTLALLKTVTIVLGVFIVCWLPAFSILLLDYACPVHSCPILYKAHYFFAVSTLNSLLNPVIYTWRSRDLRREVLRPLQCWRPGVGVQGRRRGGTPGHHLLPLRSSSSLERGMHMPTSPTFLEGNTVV

## Cc1cc(C(=O)CSc2nc[nH]n2)c(C)n1Cc1ccccc1
[1]
  EC50: > 30 µM (not active)

## O=C1NC(=O)N(c2ccccc2)C(=O)/C1=C\c1ccc([N+](=O)[O-])s1
Large T antigen
  IC50: 42.1 µM (active)
NS3
  IC50: 15.7 µM (not active)

## CC(c1ccccc1)C1CC(=O)N(C2CCCCC2)C1=O (centres undefined)
Ion channel NompC
  EC50: > 29.9 µM (not active)
Mucolipin-3
  EC50: 4.1 µM (active)
[2]
  IC50: 125 µM (inconclusive)

## O=C1C(Cl)=C(N2CCN(C(c3ccccc3)c3ccc(Cl)cc3)CC2)C(=O)N1c1ccc(Cl)c(Cl)c1 (centres undefined)
Bcl-2-related protein A1 [3]
  IC50: > 100 µM (not active)
Bcl-2-related protein A1 [4]
  IC50: > 100 µM (not active)
[5]
  IC50: > 100 µM (not active)
